The text below walks through data of PubChem BioAssay (NCI).

Among the test systems are SF-539 CNS; SNB-19 CNS; SNB-75 CNS; 786-0 renal; HCT-15 colon; HCT-116 colon; CCRF-CEM leukemia; RPMI-8226 leukemia.
Assay in all cases: inhibition of tumour cell growth, NCI panel, 48 h

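A five-concentration, 48-hour dose response in 96-well plates underlies each endpoint, interpolated linearly between surrounding concentrations. GI50 marks 50% less growth. TGI: total growth inhibition.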

For `COC1OC2COC(C)(C)OC2C(OC(C)=O)C1NC(=O)N(CCCl)N=O` (stereo not drawn), the TGI is 93.1 µM in the assay on SF-539 CNS; > 100 µM in the assay on SNB-19 CNS; > 100 µM with SNB-75 CNS; > 100 µM in the assay with 786-0 renal; > 100 µM in the assay on HCT-15 colon; > 100 µM with HCT-116 colon. Besides, the TGI in the assay on CCRF-CEM leukemia is > 100 µM.
`CC(=O)[CH-]C(=O)c1ccccc1.CC(=O)[CH-]C(=O)c1ccccc1.O=S(=O)([O-])c1cc([O-])c2c([O-])cc(S(=O)(=O)[O-])cc2c1.[Na+].[Zr+4]`: the GI50 in the assay with SF-539 CNS was > 100 µM; with SNB-19 CNS, 35.3 µM; in the assay with SNB-75 CNS it was 49 µM; in the assay with 786-0 renal, 70.8 µM; in the assay with HCT-15 colon, > 100 µM; with HCT-116 colon, > 100 µM. The GI50 in the assay with RPMI-8226 leukemia is > 100 µM. Moreover, the TGI in the assay with SF-539 CNS, in the assay with SNB-19 CNS, with SNB-75 CNS, in the assay with 786-0 renal, in the assay with HCT-15 colon and in the assay on HCT-116 colon was > 100 µM in each case. For the same molecule, the TGI in the assay on RPMI-8226 leukemia was > 100 µM.
For `COc1cc(/C=N/N=C(\N)NO)c(Cl)cc1O`, the TGI in the assay with SF-539 CNS, with SNB-19 CNS, with 786-0 renal, in the assay with HCT-15 colon, in the assay on HCT-116 colon and with RPMI-8226 leukemia was > 100 µM throughout. Besides, the TGI in the assay with CCRF-CEM leukemia was > 100 µM.
In the case of `Cc1cc(C)c(-c2noc(-c3ccc(Cl)cc3)c2C2=NCCCN2)c(C)c1`, the TGI in the assay with SF-539 CNS is 30.5 µM; in the assay with SNB-19 CNS, > 100 µM; with 786-0 renal it was 26.5 µM; in the assay on HCT-15 colon, > 100 µM; in the assay with HCT-116 colon, > 100 µM; with RPMI-8226 leukemia, 45.3 µM. Moreover, the TGI with CCRF-CEM leukemia came to 73.9 µM.
Turning to `C/C=C1\CN2CCc3c([nH]c4ccccc34)C2CC1CCO` (stereo not drawn), the TGI with SF-539 CNS, in the assay with SNB-19 CNS, in the assay with SNB-75 CNS, with 786-0 renal, in the assay on HCT-15 colon and in the assay on HCT-116 colon was > 100 µM throughout. Besides, the TGI with CCRF-CEM leukemia is > 100 µM.
On to `O=C1C2C3CC(C4C5C=CC(C5)C34)C2C2C3CC(C12)C1C2C=CC(C2)C31` (stereo not drawn), for which the TGI in the assay on SF-539 CNS, with SNB-19 CNS, with SNB-75 CNS, in the assay on 786-0 renal, in the assay on HCT-15 colon and with HCT-116 colon was > 100 µM in each case. Moreover, the TGI in the assay on CCRF-CEM leukemia was > 100 µM.
As for `N/N=C(/Cc1nc2ccc(C(=O)c3ccccc3)cc2[nH]c1=O)C(=O)Nc1ccc([N+](=O)[O-])cc1[N+](=O)[O-]`, the TGI in the assay with SF-539 CNS, in the assay with SNB-19 CNS, with 786-0 renal, in the assay with HCT-15 colon, in the assay on HCT-116 colon and with RPMI-8226 leukemia was > 100 µM each time. The TGI in the assay on CCRF-CEM leukemia is > 100 µM. The GI50 in the assay on HCT-15 colon, in the assay on HCT-116 colon, in the assay with RPMI-8226 leukemia and in the assay with CCRF-CEM leukemia was > 100 µM each time.
`COC(=O)[C@@H]1Cc2c([nH]c3ccccc23)[C@H](c2ccccc2)N1`: the TGI in the assay on SF-539 CNS was 67.3 µM; in the assay with SNB-19 CNS, > 100 µM; with SNB-75 CNS, 86.1 µM; with 786-0 renal, > 100 µM; with HCT-15 colon, 41.3 µM; with HCT-116 colon, > 100 µM. In addition, in the assay on CCRF-CEM leukemia, the TGI was > 100 µM.
Regarding `O=C(Nc1ccc(Cl)c(Cl)c1)C(=O)C(C(=O)c1ccccc1-c1ccccc1)C1OC(=O)c2ccccc21` (stereo not drawn), the TGI worked out at 27.9 µM in the assay on SF-539 CNS; 41.3 µM in the assay on SNB-75 CNS; 25.6 µM in the assay with 786-0 renal; 22.3 µM with HCT-116 colon; 63.5 µM in the assay with RPMI-8226 leukemia; 84.9 µM in the assay with CCRF-CEM leukemia.
As for `COc1ccc(OC)c(/C=N/N=C(\N)NO)c1`, the TGI with SF-539 CNS, with SNB-19 CNS, in the assay with SNB-75 CNS, with 786-0 renal, in the assay with HCT-15 colon and in the assay with HCT-116 colon was > 100 µM in each case. Also, the TGI in the assay with CCRF-CEM leukemia was > 100 µM.
`COC1(OC)C2(Cl)C(Cl)=C(Cl)C1(Cl)C1C2C2CC1(C(=O)O)c1ccccc12` (stereo not drawn): the TGI was > 100 µM in the assay with SNB-19 CNS; 31.6 µM with 786-0 renal; 62.3 µM in the assay on HCT-15 colon; 33.8 µM in the assay with HCT-116 colon; 54.5 µM in the assay with RPMI-8226 leukemia; 27 µM in the assay with CCRF-CEM leukemia.
Regarding `O=C(/C=C/c1cccc([N+](=O)[O-])c1)c1ccc([N+](=O)[O-])cc1`, the TGI with SF-539 CNS, in the assay on SNB-19 CNS, with SNB-75 CNS, with 786-0 renal, in the assay with HCT-15 colon and in the assay on HCT-116 colon was > 100 µM each time. The TGI in the assay with CCRF-CEM leukemia was > 100 µM.
